Source: patent publication US11384062B2 (CombiPhos Catalysts, Inc., priority 2017, dated 2022)

Experiment: in vitro
Conditions: rat, microsomes
Protocol: Buffer solutions were prepared as follows: • a. Buffer A: 0.1 M monobasic potassium phosphate buffer containing 1.0 mM EDTA. • b. Buffer B: 0.1 M dibasic potassium phosphate buffer containing 1.0 mM EDTA. • c. Buffer C: 0.1 M potassium phosphate buffer containing 1.0 mM EDTA was adjusted to pH 7.4 by titrating 700 mL of Buffer B with Buffer A while monitoring with a pH meter. • 2. An NADPH stock solution (6 mM) was prepared by dissolving NADPH into Buffer C. • 3. Spiking solutions were prepared for the reference compound (ketanserin) and the test compounds as follows: • a. A 500 μM spiking solution of the reference compound (ketanserin) was generated by adding 10 μL of a 10 mM stock solution of ketanserin in DMSO into 190 μL acetonitrile. A 1.5 μM spiking solution in microsomes (0.75 mg/mL) was generated by adding 1.5 μL of the 500 μM spiking solution and 18.75 μL of 20 mg/mL rat liver microsomes into 479.75 μL of Buffer C while cooling with ice. • b. […] A 0.75 μM spiking solution in microsomes (0.75 mg/mL) was generated by adding 1.5 μL of the 250 μM spiking solution and 18.75 μL of 20 mg/mL rat liver microsomes into 479.75 μL of Buffer C while cooling with ice. • 4. 30 μL of 1.5 μM spiking solution containing 0.75 mg/mL microsomes solution was dispensed into assay plates designated for different time points (0 min, 5 min, 15 min, 30 min, and 45 min; or 0 min, 15 min, 30 min, 45 min, and 60 min as shown in Tables 1-5 below) while cooling with ice. • 5. For the 0 min time point assay plate, 135 μL of ACN containing IS followed immediately by 15 μL of the 6 mM NADPH stock solution were added to the wells of the 0 min assay plate. • 6. All assay plates other than the 0 min assay plate were pre-incubated at 37° C. for 5 min, and then 15 μL of the 6 mM NADPH stock solution was added to the wells of the assay plates to start the reaction and timing. At the appropriate time (5 min, 15 min, 30 min, 45 min, or 60 min), 135 μL of ACN containing IS was added to the wells of the corresponding assay plates, respectively, to stop the reaction. • 7. After quenching, the plates were shaken in a vibrator (IKA, MTS 2/4) for 10 min (600 rpm/min) and then centrifuged at 5594 g for 15 min (Thermo Multifuge×3R). • 8. After centrifugation, 50 μL of the supernatant from each well was transferred into a 96-well sample plate containing 50 μL of ultrapure water (Millipore, ZMQS50F01) for LC/MS analysis.

[2H]C1([2H])NC([2H])([2H])C([2H])(c2ccc(-n3cc4cccc(C(N)=O)c4n3)cc2)C([2H])([2H])C1([2H])[2H] (racemic) [Example 3, 2-(4-(piperidin-3-yl-2,2,3,4,4,5,5,6,6-d9)phenyl)-2H-indazole-7-carboxamide]
Percent Remaining (%) 0 min (0 h, 0.5 µM, pH 7.4): 100.00% | Percent Remaining (%) 15 min (0.25 h, 0.5 µM, pH 7.4): 92.77% | Percent Remaining (%) 30 min (0.5 h, 0.5 µM, pH 7.4): 82.19% | Percent Remaining (%) 45 min (0.75 h, 0.5 µM, pH 7.4): 74.60% | Percent Remaining (%) 60 min (1 h, 0.5 µM, pH 7.4): 69.31% | CLint scaled at 0.5 µM (pH 7.4, Clint): 22.7 mL/min/kg | half-life at 0.5 µM (pH 7.4, T1/2): 1.82 h
